How the values were obtained:
Format in all cases: in vivo
[1] = system: Cooperia; assay: Per cent control of nematodes in cattle (Example 14); conditions: dewormed 57 days earlier
Experimental: (§1) One half boluses (weight 25.5 to 27.0 g) and are administered to cattle on pasture. […] In this test pastured animals are randomly divided into groups of 5 animals per group and ear-tagged. The feces of all animals is examined prior to the tests in order to determine the average number of nematode eggs per gram of feces of the test animals. […] The test is begun with all animals receiving one half of a bolus weighing about 25 to 27 grams. […] The animals are then placed in individual paddocks and examined at intervals during the holding period up to 120 days. […]

[2] = system: Oesophlogostonum; assay: as above; conditions: dewormed 57 days earlier
Experimental: as §1

[3] = system: Ostertagia; assay: as above; conditions: dewormed 57 days earlier
Experimental: as §1

[4] = system: Haemonchus; assay: as above; conditions: dewormed 57 days earlier
Experimental: as §1

[5] = system: nematode eggs; assay: Nematode eggs per gram of feces in pastured cattle (Example 14)
Experimental: as §1

[6] = Weight gains of cattle (Example 14)
Experimental: as §1

Compound: c1ccc([C@H]2CN3CCSC3=N2)cc1 [Levamisole]
- Avg. number worms Cooperia [1]: 5937
- Avg. number worms Oesophlogostonum [2]: 117
- Avg. number worms Ostertagia [3]: 729
- Avg. number worms Haemonchus [4]: 2325
- Average number of nematode eggs per gram of feces ([5]; Day 0 (before treatment)): (2850)
- Average number of nematode eggs per gram of feces ([5]; Day 7): 5
- per cent in parentheses beside the egg count (reduction of nematode eggs) ([5]; Day 7): 99.9%
- Average number of nematode eggs per gram of feces ([5]; Day 62 (levamisole group re-treated on day 62)): 755
- Average number of nematode eggs per gram of feces ([5]; Day 119): 146
- Average weight gains (Kg) from Day 0 ([6]; Day 7): 7 kg
- Average weight gains (Kg) from Day 0 ([6]; Day 62): 0 kg
- Average weight gains (Kg) from Day 0 ([6]; Day 110): 21 kg

Reference: EP0385106A1, “Sustained release bolus effective for the prolonged prevention, treatment or control of nematode, acarid and endo- and ectoparasitic infestations of ruminants” (AMERICAN CYANAMID COMPANY, priority 1989, dated 1990)
